Key:
[1] = system: S473 AKT phosphorylation in HEK293 cells; assay: Insulin-induced AKT phosphorylation in HEK293 cells; format: cell-based, human; settings: peptide included during serum starvation and insulin stimulation (100 nM, 30 min), dose-dependent
Method: (§1) FIG. 3A is the amino acid sequence of the C-terminal region of K-Ras 4B—the helix α5 is highlighted and K-tetracosapeptide is underlined. Its predicted structure is shown on the right: positively- and negatively-charged surfaces are highlighted. FLAG-tagged GTP-bound K-Ras 4BG12V was incubated with GDP-loaded GFP-RhoA in the presence of K-tetracosapeptide (K-TC) or a scrambled peptide (50, 250, and 1250 nM). GFP-RhoA was pulled down using GFP-Trap beads. The pellets were analyzed by Western blotting using antibodies to FLAG and GFP (FIG. 3B) and quantified by band intensity (FIG. 3C). Bars are mean±SD (n=3). FIG. 3D is a schematic of the interaction of K-Ras 4B and RhoA in the presence of K-tetracosapeptide (K-TC) or a scrambled peptide. […] S473 AKT phosphorylation was analyzed by Western blotting (FIG. 3E) and band intensity of phospho-AKT relative to total AKT was quantified (FIG. 3F). Bars are mean±SD (n=3). After serum starvation, HEK293 cells were stimulated by insulin. […] S473 AKT phosphorylation was analyzed by Western blotting. (FIG. 3G) and band intensity was quantified (FIG. 3H). […]
Insulin-induced AKT phosphorylation in cells HEK293 cells and differentiated 3T3-L1 adipocytes were washed with serum-free DMEM and incubated with serum-free DMEM for 5 h. […] After clarification, cell lysates were analyzed by Western blotting.

[2] = system: phosphorylation of AKT and TBC1D4 in 3T3-L1 adipocytes; assay: Insulin-induced phosphorylation of AKT and TBC1D4 in 3T3-L1 adipocytes; format: cell-based, mouse; settings: differentiated WT 3T3-L1 adipocytes; peptide pre-treatment 5 h, 100 nM insulin 30 min
Method: (§2) Differentiation into adipocytes was induced in WT 3T3-L1 cells and RhoA-KO 3T3-L1 cells expressing the indicated FLAG-RhoA proteins. Differentiation was analyzed Western blotting using anti-adiponectin antibodies (FIG. 6A) and band intensity was quantified (FIG. 6B). Bars are mean f SD (n=3). FIG. 6C is images of WT and RhoA-KO 3T3-L1 cells stained with oil red O before and after induction of the differentiation. FIG. 6D is images RhoA-KO 3T3-L1 cells expressing the indicated RhoA proteins and analyzed by oil red O stain after induction of differentiation. Differentiated WT 3T3-L1 adipocytes were stimulated with insulin after serum starvation in the presence of TAT-K-tetracosapeptide or a TAT peptide. Phosphorylation of AKT and TBC1D4 was analyzed by Western blotting (FIG. 6E) and quantification of band intensity (FIG. 6F). Bars are mean±SD (n=3). […]
(§3) Insulin-induced AKT phosphorylation and translocation of GLUT4 in 3T3-L1 adipocytes To examine AKT phosphorylation, differentiated WT 3T3-L1 adipocytes were incubated in serum-free DMEM medium for 5 h and stimulated with 100 nM insulin for 30 min. […] After clarification, cell lysates were analyzed by Western blotting using antibodies to AKT (Cell Signaling, 9272) and phospho-AKT (Serine 473) (Cell Signaling, 9271). […]

[3] = system: transport of GLUT4-GFP to the plasma membrane in 3T3-L1 adipocytes; assay: Insulin-induced translocation of GLUT4-GFP in 3T3-L1 adipocytes (confocal microscopy); format: cell-based, mouse; settings: 3T3-L1 adipocytes carrying GLUT4-GFP; insulin 30 min after serum starvation
Method: as §2, §3

[4] = biological target: T1, interaction of purified GTP-K-Ras 4B and GDP-RhoA (Homo sapiens, UniProt P61586, G12V); assay: In vitro protein-protein interaction assay (GFP-Trap pull-down, Western blotting); format: binding; settings: peptide 50, 250 and 1250 nM, dose-dependent, FLAG-K-Ras 4BG12V pulled down with GFP-RhoA
T1 construct: made in house; host or cells: Dictyostelium cells
T1 sequence (P61586 whole entry G12V): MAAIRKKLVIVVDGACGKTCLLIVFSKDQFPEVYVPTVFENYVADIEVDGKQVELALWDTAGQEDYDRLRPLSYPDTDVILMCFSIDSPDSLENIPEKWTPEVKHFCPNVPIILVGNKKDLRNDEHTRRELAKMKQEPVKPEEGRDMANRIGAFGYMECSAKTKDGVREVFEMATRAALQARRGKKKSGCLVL
Method: as §1, with “(n=3).” for “(n=3). FIG. 3D is a schematic of the interaction of K-Ras 4B and RhoA in the presence of K-tetracosapeptide (K-TC) or a scrambled peptide.”, “3F).” for “3F). Bars are mean±SD (n=3). After serum starvation, HEK293 cells were stimulated by insulin.”
FLAG-tagged K-Ras4A and K-Ras 4B were eluted from anti-FLAG beads by incubation with 1 M arginine at room temperature for 5 min. Amounts of purified proteins were quantified on CBB-stained SDS-PAGE gels using ImageJ software with BSA as a standard. […] GFP-Trap beads were washed three times in 1 mM MgCl2, 100 mM potassium acetate, 25 mM HEPES (pH 7.4), and bound proteins were analyzed by Western blotting.

[5] = biological target: T2, KARATE (mTORC2 mixed with GTP-bound K-Ras 4BG12V and GDP-loaded RhoA) (Homo sapiens, UniProt P61586, G12V); assay: In vitro reconstitution of mTORC2-mediated AKT phosphorylation; format: biochemical; settings: S473 AKT phosphorylation by Western blotting; peptide 50, 250 and 1250 nM
T2 construct: made in house; host or cells: K-Ras 4B G12V and RhoA from Dictyostelium cells; AKT1 purchased (Sigma, 14-279)
T2 sequence (P61586 whole entry G12V): as above
Method: as §1, with “(n=3).” for “(n=3). FIG. 3D is a schematic of the interaction of K-Ras 4B and RhoA in the presence of K-tetracosapeptide (K-TC) or a scrambled peptide.”, “3F).” for “3F). Bars are mean±SD (n=3). After serum starvation, HEK293 cells were stimulated by insulin.”
In vitro reconstitution of mTORC2-mediated AKT phosphorylation The kinase activity of mTORC1 and mTORC2 was measured as described previously by Huang, Sarbassov dos, and Senoo (Methods Mol Biol 821, 75-86(2012), Methods Mol Biol 821, 59-74(2012), and Nat Cell Biol 21, 867-878(2019), respectively) with some modifications. […] AKT phosphorylation was detected by Western blotting with anti-phospho-AKT (serine 473) antibodies (Cell Signaling, 9271).

| Sequence | effect on insulin-stimulated AKT phosphorylation in cells [1] | effect on insulin-induced phosphorylation of AKT [2] | effect on insulin-induced phosphorylation of TBC1D4 [2] | effect on insulin-induced transport of GLUT4-GFP to the plasma membrane [3] | effect on the interaction of purified GTP-K-Ras 4B and GDP-RhoA [4] | effect on AKT phosphorylation in vitro [5] |
| --- | --- | --- | --- | --- | --- | --- |
| GRKKRRQRRRPQGVDDAFYTLVREIRKHKEKMSKDG [TAT-K-tetracosapeptide, K-tetracosapeptide fused to a cell-permeable TAT peptide] | blocked in a dose-dependent manner | blocked | blocked | strongly inhibited |  |  |
| GVDDAFYTLVREIRKHKEKMSKDG [K-tetracosapeptide, peptide of 24 amino acids corresponding to the helix α5 in K-Ras 4B] |  |  |  |  | greatly decreased | blocked |
